Experimental data published in patent publication US20110275647A1, “PYRIMIDIN-4-(3H)-ONE DERIVATIVES” (MSD K.K., priority 2009, published 2011).

target: T1, human MGAT2 (Homo sapiens, UniProt Q3SYC2); test: MGAT2 inhibitory activity test; type: biochemical; settings: MGAT2-expressed yeast membrane fraction, [14C]-oleoyl-CoA, 37° C. for 30 minutes
T1 construct: made in house; host or cells: Pichia pastoris (vector pPICZA), membrane fraction
Procedure: Human MGAT2 genes were amplified by PCR using primers described below from human cDNA library (Clontech).
The amplified human MGAT2 genes were introduced into a yeast expression vector pPICZA (Invitrogen). The resultant expression plasmid was introduced into an yeast (Pichia pastris) by electroporation to produce a recombinant yeast. The recombinant yeast was cultured in the presence of 0.5% methanol for 72 hours, and the cells were crushed using glass beads in 10 mM Tris pH 7.5, 250 mM sucrose and 1 mM EDTA, followed by adjusting the membrane fraction by centrifugation to use the adjusted membrane fraction as an enzyme source.
To the reaction solution, 100 μl of 2-propanol/heptan (80:20) was added, the mixture was stirred well, followed by addition of 200 μl of heptane and further stirring the mixture. After centrifugation, the heptane layer was collected, 80 μl of ethanol/0.1N NaOH/H2O (50:5:45) was added, the mixture was thus stirred, followed by recentrifuging the mixture and collecting the heptane layer. After exsiccation of the resultant heptane layer, 100 μl of Microscint 0 (PerkinElmer) was added, and the radioactivity was measured with a liquid scintillation counter. The inhibitory activity was calculated from the following formula:
Inhibition rate=100−(radioactivity in case of addition of test compound−background)/(radioactivity in case of addition of no test compound−background)×100
wherein the background means the radioactivity in case of addition of no membrane fraction.

T1 sequence (Q3SYC2 whole entry): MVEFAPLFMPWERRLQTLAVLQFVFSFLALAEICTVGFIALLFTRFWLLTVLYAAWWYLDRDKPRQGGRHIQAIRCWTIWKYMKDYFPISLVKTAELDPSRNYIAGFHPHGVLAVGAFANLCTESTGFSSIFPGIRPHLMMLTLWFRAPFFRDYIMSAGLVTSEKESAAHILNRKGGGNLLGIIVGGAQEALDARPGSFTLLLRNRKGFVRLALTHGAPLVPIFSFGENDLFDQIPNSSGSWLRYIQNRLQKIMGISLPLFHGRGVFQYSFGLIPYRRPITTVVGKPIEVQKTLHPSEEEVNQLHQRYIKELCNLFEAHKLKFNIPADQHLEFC

Row | Compound | IC50 [nM]
1 | O=c1c2c(nc(SCc3ccccc3)n1-c1ccccc1)CCN(c1nc3cc(C(F)(F)F)ccc3[nH]1)C2 [Example 2, 6-(5-trifluoromethyl-1H-benzimidazol-2-yl)-3-phenyl-2-[(phenylmethyl)thio]-5,6,7,8-tetrahydropyrido[4,3-d]pyrimidin-4(3H)-one] | 184
2 | O=c1c2c(nc(SCc3ccccc3)n1-c1ccccc1)CCN(c1nc3cc(F)c(F)cc3[nH]1)C2 [Example 1, 6-(5,6-difluoro-1H-benzimidazol-2-yl)-3-phenyl-2-[(phenylmethyl)thio]-5,6,7,8-tetrahydropyrido[4,3-d]pyrimidin-4(3H)-one] | 817
3 | O=c1c2c(nc(SCc3ccnnc3)n1-c1ccccc1)CCN(c1nc3cc(C(F)(F)F)ccc3[nH]1)C2 [Example 4, 3-phenyl-2-[(pyridazin-4-ylmethyl)thio]-6-[5-(trifluoromethyl)-1H-benzimidazol-2-yl]-5,6,7,8-tetrahydropyrido[4,3-d]pyrimidin-4(3H)-one] | 114
4 | O=c1c2c(nc(SCc3cccnc3)n1-c1ccccc1)CCN(c1nc3cc(C(F)(F)F)ccc3[nH]1)C2 [Example 3, 3-phenyl-2-[(pyridin-3-ylmethyl)thio]-6-[5-(trifluoromethyl)-1H-benzimidazol-2-yl]-5,6,7,8-tetrahydropyrido[4,3-d]pyrimidin-4(3H)-one] | 56
